The source of these data is patent publication US20080235828A1 (University of Manitoba, priority 2004, published 2008).

Entries after “also recorded” stand apart in the source; their conditions may differ.

Test [1] relates to em promoter. Nature of the test: em promoter driven GUS expression in bombarded barley aleurone layers. The format is cell-based. To be noted: in the presence of the added substance. The source says:
The studies examined the effector and reporter constructs, at a 1:1 ratio, introduced to barley aleurone layers by gold particle bombardment. The bombardment consisted of two trials: the first trial was a bombardment of em promoter only; the second trial was a bombardment of em promoters treated with ABAP1.

Test [2] concerns α-amylase activity. The experiment in a line: α-amylase activity in bombarded barley aleurones. The format is cell-based. Particulars: em and ABAP1 bombarded aleurones.
Description: A similar experiment was conducted with α-amylase activity to confirm if ABAP1 is involved in another signal transduction pathway. α-amylase activity was measured after ABA, PBI51 and GA were added to the em and ADAPT bombarded barley aleurones.
Test [3] deals with ABAP1 (Hordeum vulgare, UniProt Q9LLX3). Nature of the test: ABA binding assay with purified recombinant ABAP1. To be noted: analogs/precursors added at the same time as 3H+-ABA at different concentrations (20-5000). Details: species or system barley. Here is the method:
Other additions or changes to the incubation system are discussed in the figure legends. All binding assays were carried out at a final volume of 150 μL at 4° C. for 1 hour. The mixture was then rapidly filtered through a nitrocellulose membrane, washed with 5 mL, of cold 0.5× binding buffer by rapid filtration, dried in air and counted in a scintillation counter (Wallac 1414 WinSpectral v1.40). […] The DCC binding mixture was maintained for 15 minutes on ice before centrifugation to precipitate DCC. The resulted supernatant was then counted in a scintillation counter to determine the binding activity. […] Heat denatured ABAP1 protein was used to determine the protein nature of the ABAP1 and BSA was used as a control. All binding studies were carried out using three different protein purifications with triplicate assays for each purification. […] Binding was represented as the number of moles of ^3H^+-ABA per mole of ABAP1 protein.

Test [4] concerns the target T1, FCA protein (Arabidopsis thaliana, UniProt O04425).
T1 sequence (O04425 1-747 isoform O04425-1): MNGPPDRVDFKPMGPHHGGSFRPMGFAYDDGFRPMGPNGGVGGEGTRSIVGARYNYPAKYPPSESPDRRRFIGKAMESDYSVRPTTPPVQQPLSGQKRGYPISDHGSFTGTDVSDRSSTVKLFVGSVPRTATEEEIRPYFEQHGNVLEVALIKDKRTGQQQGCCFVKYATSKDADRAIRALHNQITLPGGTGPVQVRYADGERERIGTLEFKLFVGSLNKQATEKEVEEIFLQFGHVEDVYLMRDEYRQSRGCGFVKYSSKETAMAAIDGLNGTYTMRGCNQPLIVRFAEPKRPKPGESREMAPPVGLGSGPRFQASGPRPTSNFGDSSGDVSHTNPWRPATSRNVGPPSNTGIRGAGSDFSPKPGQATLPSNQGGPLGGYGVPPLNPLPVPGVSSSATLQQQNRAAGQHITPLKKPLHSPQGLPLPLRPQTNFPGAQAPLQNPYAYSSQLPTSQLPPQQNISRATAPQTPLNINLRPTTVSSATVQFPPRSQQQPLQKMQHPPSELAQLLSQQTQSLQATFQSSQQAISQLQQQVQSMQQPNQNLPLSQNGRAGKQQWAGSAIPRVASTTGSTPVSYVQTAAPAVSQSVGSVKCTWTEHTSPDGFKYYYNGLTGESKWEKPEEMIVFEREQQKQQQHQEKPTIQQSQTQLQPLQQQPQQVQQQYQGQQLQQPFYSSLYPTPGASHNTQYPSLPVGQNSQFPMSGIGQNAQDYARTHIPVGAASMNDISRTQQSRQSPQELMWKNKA
The experiment in a line: ABA binding assay with purified recombinant FCA. Details: Kd; other: analog added in higher concentrations than 3H+-ABA (20-5000 nM); other: Scatchard analysis, r^2=0.88; other: in presence of 5 μM unlabelled (+)-ABA; pH range of maximum; fused on or other part: GST fused on for purification. Particulars: analog added in higher concentrations than 3H+-ABA (20-5000 nM). The method, then:
[…] The mixture was then rapidly filtered through a nitrocellulose membrane, washed with 0.5× binding buffer, air dried and counted in a scintillation counter (Wallac 1414 WinSpectral v1.40). Heat denatured FCA protein was used to used determine the protein nature of the FCA and BSA was used as a control. All binding studies were carried out using three different GST affinity chromatography protein purifications with triplicate assays for each purification. […] Specific binding was calculated by taking the difference for assays with only ^3H^+-ABA (total binding) and assays that also contained 5 μM (±)-ABA added at the same time as ^3H^+-ABA (non-specific binding). Binding was represented as the number of moles of ^3H^+-ABA per mole of FCA protein.

Test [5] has as its system FCA/FY interaction. The experiment in a line: GST pull-down of FCA/FY interaction in the presence of ABA. In kind it is binding, Arabidopsis. To be noted: FCA pre-bound with ABA for 30 min. The method, then: All in vitro translation and GST pull-down assays were carried out as described by supplier's protocols (Promega, Madison, Wis.) with modifications^S and as follows. For GST in vitro pull-down assays, 15 μL GST affinity resin was incubated with 250 μL FCA clear lysate, pelleted and the complex blocked and washed with IP buffer as described^S. For the determination of the amount of FCA bound to GST resin, the pellet was resuspended with 200 μL of 15 mM GSH to elute FCA and the supernatant was recovered by centrifugation. FY protein to be tested for interaction with the GST-FCA fusion protein was synthesized from a plasmid template and labeled with [^35S]-methionine using the T7 TNT coupled Transcription/Translation System (Promega). Twenty μL of FY labeled protein and 180 μL of interaction buffer (12.5 mM Tris-HCl, pH 7.3 containing 5 mM KCl, 1 mM MgCl2, and 100 mM NaCl) were used to resuspend the GST:FCA after the final wash. The protein binding/interaction reaction was carried out for 90 minutes at 4° C. with continuous gentle mixing. The newly formed complex was then washed three times with 500 μL of IP wash buffer. After the final wash, the complex was resuspended, first with 10 μL of 1 5 mM GSH to facilitate the dissociation of interacted proteins from GST resin and then 10 μL of 2×SDS-PAGE sample buffer was added to the mixture and boiled for 5 minutes for complete elution of the proteins from the agarose beads. The beads were pelleted by centrifugation and supernatant was loaded on a 12% SDS-PAGE gel. The gel was dried and exposed to Kodak X-ray film for 18 hours at −70° C. and film was developed for the detection of labelled proteins.
FCA was bound with […] for 30 minutes at which time the FCA/FY translated product was added to the incubation mixture. The interaction between FCA/FY was carried out in the presence of either (−)- or (+)-ABA in binding buffer as described above. Released proteins were separated on SDS-PAGE and labelled proteins were detected as described above. FCA-WW-FY was used as a control.

A short description of test [6]: ABA binding of ABAP1 trypsin fragments. Particulars: for ABA binding molar ratio / affinity: trypsin fragments compared with full-length ABAP1. Details: species or system barley. The source says: It is to be noted that the nucleotide fragment sequence SEQ ID NO: 12 corresponds to nucleotides 350 through 951 of the nucleotide sequence listing set forth in SEQ ID NO: 9, and that the amino acid sequence SEQ ID NO: 11 encoded by the nucleotide fragment sequence SEQ ID NO: 12 corresponds to amino acids 112 though 309 of the ABAP1 protein (SEQ. ID NO: 10). Mutation analysis can be used to determine the specific residues involved in […] binding. Those skilled in these arts will understand that the ABA-binding capacity within a recipient plant tissue or seed can be modulated by constructing a nucleotide molecule by first fusing the T-20 coding sequence (SEQ ID NO: 12) with a suitable regulatory nucleotide sequence selected for over-expression or for under-expression of the T-20 coding sequence, then stably introducing the T-20 nucleotide molecule into the genome of a recipient cell from a seed-producing plant, culturing the recipient cell into a functional whole plant and then further propagating the plant to produce mature recipient seeds. A suitable forward […] for the T-20 coding sequence is set forth in the sequence listing identified as SEQ ID NO: 15. A suitable reverse primer for the T-20 coding sequence is set forth in the sequence listing identified as SEQ ID NO: 16.

Sequence of ABAP1 (Q9LLX3 entry or part of it): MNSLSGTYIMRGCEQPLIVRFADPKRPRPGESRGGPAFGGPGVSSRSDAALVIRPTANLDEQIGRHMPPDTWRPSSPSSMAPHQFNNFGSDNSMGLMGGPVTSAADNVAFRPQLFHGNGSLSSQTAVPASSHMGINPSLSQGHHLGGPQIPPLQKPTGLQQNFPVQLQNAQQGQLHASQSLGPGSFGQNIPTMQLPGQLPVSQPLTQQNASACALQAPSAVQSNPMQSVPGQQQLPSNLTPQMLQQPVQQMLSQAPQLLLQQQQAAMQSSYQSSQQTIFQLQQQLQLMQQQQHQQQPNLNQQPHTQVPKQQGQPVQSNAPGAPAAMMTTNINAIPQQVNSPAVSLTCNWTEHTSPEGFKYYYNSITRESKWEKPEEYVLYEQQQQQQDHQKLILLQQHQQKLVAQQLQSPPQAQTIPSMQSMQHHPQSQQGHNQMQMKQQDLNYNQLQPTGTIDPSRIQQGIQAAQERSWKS

For `C/C(C#C[C@]1(O)[C@H](C)CC(=O)CC1(C)C)=C/CO` [PBI51], the “activation of the em promoter by ABAP1” value in test [1] is on record as “reduced”. The α-amylase activity result in test [2] is given as “decreased”.
With `CC1=CC(=O)CC(C)(C)[C@@]1(O)/C=C/C(C)=C\C=O` [(+) ABA-aldehyde], the entries for the “displacement of 3H+-ABA bound to ABAP1 (competition)” value (shortened to “displacement of 3H+-ABA bound”) in test [3] and in test [3] (listed as ABA aldehyde) were “able to displace” and “did competitively inhibit binding of ABA to ABAP1 to some extent”, respectively.
On to `CC(C=CC1(O)C(C)=CC(=O)CC1(C)C)=CC(=O)O` (stereo not drawn) [trans-ABA], for which, in test [3], the “displacement of 3H+-ABA bound” value is reported as “incapability; also recorded: neither (−)-ABA nor trans-ABA compete”. The “displacement of 3H+-ABA binding to FCA” value in test [4] was “Virtually no or very little displacement”.
For the molecule `CC(=C/C(=O)O)/C=C/[C@]1(O)[C@@]2(C)CO[C@]1(C)CC(=O)C2` [PA, phaseic acid], the “displacement of 3H+-ABA bound” value in test [3] is listed as “incapability”.
As to `CC1=CC(=O)CC(C)(C)[C@@]1(O)/C=C/C(C)=C\C(=O)O[C@@H]1O[C@H](CO)[C@@H](O)[C@H](O)[C@H]1O` [ABA-GE, (+) abscisic acid-glucose ester], the “displacement of 3H+-ABA bound” value in test [3] is recorded as “incapability”.
Regarding `CC1=CC(=O)CC(C)(C)[C@@]1(O)/C=C/C(C)=C\CO` [(+) ABA-alcohol], the “displacement of 3H+-ABA bound” value was “able to displace” in test [3] and “did competitively inhibit binding of ABA to ABAP1 to some extent” in test [3] (listed as ABA alcohol).
For `CC(=C/C(=O)O)/C=C/[C@]1(O)[C@@]2(C)CO[C@]1(C)C[C@@H](O)C2` [DPA, dihydrophaseic acid], in test [3], the “displacement of 3H+-ABA bound” value is “incapability”.
In the case of `C=C1C[C@]23C[C@@]1(O)CC[C@H]2[C@@]12C=C[C@H](O)[C@@](C)(C(=O)O1)[C@H]2[C@@H]3C(=O)O` [GA, gibberellic acid], the “activation of the em promoter by ABAP1” value in test [1] is reported as “reduced”. In test [2], the α-amylase activity entry is given as “did not affect any reduction”.
For (−)-ABA, the “displacement of 3H+-ABA bound” value in test [3] is reported as “neither (−)-ABA nor trans-ABA compete”; in test [3] (listed as (−) ABA) it was “incapability”. Moreover, the “inhibition of FCA/FY interaction” value in test [5] is “did not significantly inhibit”. Also, the “displacement of 3H+-ABA binding to FCA” value in test [4] is “Virtually no or very little displacement”.

B1: 10 kDa fragment: trypsin fragment of ABAP1 containing HR2 only, SEQ ID NO: 13 (protein)
chain: SAVQSNPMQSVPGQQQLPSNLTPQMLQQPVQQMLSQAPQLLLQQQQAAMQSSYQSSQQTIFQLQQQLQLMQQQQHQQQPNLNQQPHTQVPK
modifications: Hordeum, vulgare subsp. vulgare
Regarding B1, in test [6], the “ABA-binding affinity relative to 20 kDa fragment and full-length protein” value is on record as “less than 50%”; the “ABA binding molar ratio / affinity” value is “slight binding affinity”.

B2: 20 kDa fragment: trypsin fragment of ABAP1 with HR1 and HR2 regions, SEQ ID NO: 11 (protein)
chain: PQLFHGNGSLSSQTAVPASSHMGINPSLSQGHHLGGPQIPPLQKPTGLQQNFPVQLQNAQQGQLHASQSLGPGSFGQNIPTMQLPGQLPVSQPLTQQNASACALQAPSAVQSNPMQSVPGQQQLPSNLTPQMLQQPVQQMLSQAPQLLLQQQQAAMQSSYQSSQQTIFQLQQQLQLMQQQQHQQQPNLNQQPHTQVPK
modifications: Hordeum, vulgare subsp. vulgare
Consider B2, for which, in test [6], the “ABA binding molar ratio / affinity” value was “about the same molar ratio”.
